One series addresses rat nNOS (Rattus norvegicus, UniProt P29476). Kind of series: NOS inhibition, hemoglobin. Format: biochemical.
Series [1] addresses nNOS in 293T cells overexpressing nNOS (293T/nNOS cells) (Rattus norvegicus, UniProt P29476). In words: Cell-based nNOS inhibition assay. The note with it: for activity in the cell-based assay (in words): A23187 (5 μM), 8 h.
For series [2] the following is noted: rodent in vivo studies; cited from earlier work.

In the case of `Cc1cc(C)nc(NCc2ccc3cc(CNc4cc(C)cc(C)n4)ccc3c2)c1` [3a, N,N'-(Naphthalene-2,6-diylbis(methylene))bis(4,6-dimethylpyridin-2-amine)], the “binding / inhibition of nNOS (in words)” value at rat nNOS is reported as “poor binding”.

`Cc1cc(N)nc(CCc2ccc3cc(CCc4cc(C)cc(N)n4)ccc3c2)c1` [3b, 6,6'-(2,2'-(Naphthalene-2,6-diyl)bis(ethane-2,1-diyl))bis(4-methylpyridin-2-amine)]: the “binding / inhibition of nNOS (in words)” value at rat nNOS is “sub-micromolar binding affinity”.

Turning to `Cc1cc(N)nc(CCc2ccc3ccc(CCc4cc(C)cc(N)n4)cc3c2)c1` [3c, 6,6'-(2,2'-(Naphthalene-2,7-diyl)bis(ethane-2,1-diyl))bis(4-methylpyridin-2-amine)], the “binding / inhibition of nNOS (in words)” value on rat nNOS is reported as “sub-micromolar binding affinity”.

For `Cc1cc(N)nc(CCc2ccc3ccc(CCc4cc(C)nc(N)c4)cc3c2)c1` [3d, 4-(2-(7-(2-(6-Amino-4-methylpyridin-2-yl)ethyl)naphthalen-2-yl)ethyl)-6-methylpyridin-2-amine], on rat nNOS, the “binding / inhibition of nNOS (in words)” value is reported as “poor inhibitor”.

On to `Cc1cc(N)nc(CCc2cccc(CCc3cc(C)cc(N)n3)c2)c1` [3g, 6,6'-(2,2'-(1,3-Phenylene)bis(ethane-2,1-diyl))bis(4-methylpyridin-2-amine)], for which the “activity in the cell-based assay (in words)” value in series [1] is “almost no activity”.

On to `Cc1cc(N)nc(CCc2cccc(CCc3cc(C)nc(N)c3)c2)c1` [3h, 4-(3-(2-(6-Amino-4-methylpyridin-2-yl)ethyl)phenethyl)-6-methylpyridin-2-amine], for which, in series [1], the “activity in the cell-based assay (in words)” value is “almost no activity”.

On to `Cc1cc(CCc2cccc(CCc3cc(C)nc(N)c3)c2)cc(N)n1` [3i, 4,4'-(2,2'-(1,3-Phenylene)bis(ethane-2,1-diyl))bis(6-methylpyridin-2-amine)], for which the “binding / inhibition of nNOS (in words)” value on rat nNOS was “binds rather poorly”.

`Cc1cc(N)nc(CCc2cncc(CCc3cc(C)cc(N)n3)c2)c1` [3j, 6,6'-(2,2'-(Pyridine-3,5-diyl)bis(ethane-2,1-diyl))bis(4-methylpyridin-2-amine)]: in series [1], the “membrane penetration ability (in words, from cell-based assay)” value is on record as “good membrane penetration ability”.

As to `Cc1cc(N)nc(CCc2cncc(CCc3cc(C)nc(N)c3)c2)c1` [3k, 4-(2-(5-(2-(6-Amino-4-methylpyridin-2-yl)ethyl)pyridin-3-yl)ethyl)-6-methylpyridin-2-amine], the “membrane penetration ability (in words, from cell-based assay)” value in series [1] is on record as “good membrane penetration ability”.

As to `Cc1cc(N)nc(C[C@H]2CNC[C@H]2NCCNCCc2cccc(F)c2)c1` [compound 1], in series [2], the “ability to penetrate the blood brain barrier (BBB)” value was “poor ability to penetrate the blood brain barrier”.

With `Cc1cc(N)nc(C[C@@H]2CNC[C@@H]2NCCNCCc2cccc(F)c2)c1` [compound 2], the “ability to penetrate the blood brain barrier (BBB)” value in series [2] is given as “poor ability to penetrate the blood brain barrier”.
